Here are results for three molecules from US7417060B2, “Aminoalcohol derivatives” (Astellas Pharma Inc., priority 2003, dated 2008).

This assay concerns intravesical pressure (IVP) increase induced by carbachol. Description: Effect on the increase in intravesical pressure induced by carbachol in anesthetized dog. The format is in vivo. As to conditions: anesthetized female Beagle dogs; test compound 0.010 mg/kg intravenously 30 minutes before carbachol (1.8 μg/kg). The protocol: Effect on the Increase in Intravesical Pressure Induced by Carbachol in Anesthetized Dog
Female Beagle dogs weighing 8.0-15.0 kg were fasted for 24 hours and maintained under halothane anesthesia. A 12F Foley catheter was lubricated with water soluble jelly, inserted into the urethral orifice and advanced approximately 10 cm until the balloon tip was placed well inside the bladder. The balloon was then inflated with 5 ml of room air and catheter slowly withdrawn just part the first resistance that was felt at the bladder neck. Urine was completely drained out through the catheter, and 30 ml of biological saline was infused. The catheter was connected to pressure transducer, and intravesical pressure (IVP) was continuously recorded. The test compound was administered intravenously at 30 minutes before the administration of carbachol (1.8 μg/kg). Percent inhibition of IVP increase by test compound was calculated by dividing IVPa (IVP increase induced by carbachol after test compound administration) by IVPb (IVP increase induced by carbachol just before test compound administration).

Consider `CC(C)Sc1cc(-c2ccc(CCN[C@@H](C)[C@H](O)c3ccccc3)cc2)ccc1C(=O)O.Cl` [Test Compound (1), 4′-[2-[[(1S,2R)-2-Hydroxy-1-methyl-2-phenylethyl]-amino]ethyl]-3-(isopropylthio)-4-biphenylcarboxylic acid hydrochloride], for which the “Percent inhibition of IVP increase” value was 77%.

On to `CC(C)Cc1cc(-c2ccc(CCN[C@@H](C)[C@H](O)c3ccccc3)cc2)ccc1C(=O)NS(C)(=O)=O.Cl` [Test Compound (2), 4′-[2-[[(1S,2R)-2-Hydroxy-1-methyl-2-phenylethyl]-amino]ethyl]-3-isobutyl-N-(methylsulfonyl)-4-biphenylcarboxamide hydrochloride], for which the “Percent inhibition of IVP increase” value amounted to 76%.

In the case of `CS(=O)(=O)NC(=O)c1ccc(-c2ccc(CCNC[C@H](O)c3cccnc3)cc2)cc1OC1CCCCC1.Cl.Cl` [Test Compound (3), 3-(Cyclohexyloxy)-4′-[2-[[(2R)-2-hydroxy-2-(3-pyridyl)ethyl]amino]ethyl]-N-(methylsulfonyl)-4-biphenylcarboxamide dihydrochloride], the “Percent inhibition of IVP increase” value stood at 89%.
